Source: patent publication US11505581B2, “Antigens and T cell epitopes from cockroach and methods of making and using same” (La Jolla Institute for Allergy and Immunology, priority 2015, dated 2022)

System: PBMC
Test: ELISPOT (IFNγ, IL-5, IL-10, IL-17, IL-21) of PBMC expanded 14 days with Bla g extract, then stimulated with peptides or peptide pools
Format: cell-based, human
Parameters: key to Average Magnitude of Response: spot forming cells (SFC) per 10^6 PBMC; Response Rate per Subject: unit not given here; key to % (percentage of subjects responding to given antigen) / SFC (mean magnitude of response): “—” denotes no response
Conditions: AR
Procedure: PBMC Isolation and Cell Cultures: PBMC (peripheral blood mononuclear cells) were isolated from 450 mL (one unit) of blood by density gradient centrifugation as described and cryopreserved. For in vitro expansion of PBMC for peptide screening, cells were cultured in RPMI1640 (Omega Scientific)+5% human AB serum (Gemini Bioscience), GlutaMAX (Gibco), and penicillin/streptomycin (Omega Scientific) at 2×10^6 per mL, stimulated with 10 ug/mL Bla g extract (Greer), and incubated at 37° C. in 5% CO2. Every three days, IL-2 and IL-7 (10 U/mL) were added to the cultures. Cells were harvested for peptide screening at day 14.
ELISPOT Assays: Production of IFNγ, IL-5, IL-17, IL-10, and IL-21 (as representative of TH1, TH2, TH17, TR1, and […], respectively) in response to peptide stimulation was measured by ELISPOT as described previously. […] In brief, 1×10^5 cells per well were incubated with peptide, peptide pool, or Bla g extract (10, 5, and 10 ug/ml, respectively) on anti-lymphokine antibody coated ELISPOT plates (Millipore #MSIPS4510) for 22 hours. Subsequently, secondary anti-lymphokine antibodies were added and incubated for 2 hours, washed, and avidin-peroxidase complex added for 1 hour. Plates were washed and spots developed with 3-amino-9-ethylcarbazole (Sigma #A6926) and Vector Blue (Vector #SK-5300) for IFNγ/IL-5 and IL-10/IL-17 dual plates or TMB (Sigma #T0565) for single IL-21. Criteria for peptide pool positivity were at least 100 spot forming cells (SFC) per 10^6 PBMC, p<0.05, and stimulation index≥2. Criteria for peptide positivity were identical except with a threshold of 20 SFCs.
We synthetized overlapping peptide sets of 15 amino acids in length overlapping by 10 residues and covering the entire sequence of known Bla g Allergens, i.e. Bla g 1-7, 9 and 11, referred from hereafter collectively as BLAGA. A total of 809 BLAGA peptides were arranged in pools, encompassing on average 20 peptides.
To assess T cell reactivity, we utilized a strategy applied to the definition of epitopes from various allergen sources^15,16 utilizing in vitro stimulation with allergen extracts. Here, PBMC from each subject were stimulated in vitro with Bla g extract. After 14 days, pools of overlapping 15-mer peptides from the BLAGA were tested for responses, and positive pools deconvoluted to identify the specific epitopes. As readout, we utilized ELISPOT assays specific for IL-5, IFNγ, IL-10, IL-17 and IL-21, chosen as representative of TH2, TH1, TR1, TH17 and TFH reactivity, respectively.

Substance | % (percentage of subjects responding to given antigen) | SFC (mean magnitude of response)
Receptor for activated protein kinase C [RACK1] | — | —

Same assay, conditions: Asthmatic (combines IA, MMA, SA)

Substance | % (percentage of subjects responding to given antigen) | SFC (mean magnitude of response)
Receptor for activated protein kinase C [RACK1] | 9% | 19 SFC

Same assay, conditions: Controls

Substance | % (percentage of subjects responding to given antigen) | SFC (mean magnitude of response)
Receptor for activated protein kinase C [RACK1] | 2% | 30 SFC

Same assay, conditions: IA

Substance | % (percentage of subjects responding to given antigen) | SFC (mean magnitude of response)
Receptor for activated protein kinase C [RACK1] | 12% | 31 SFC

Same assay, conditions: MMA

Substance | % (percentage of subjects responding to given antigen) | SFC (mean magnitude of response)
Receptor for activated protein kinase C [RACK1] | 11% | 3 SFC

Same assay, conditions: SA

Substance | % (percentage of subjects responding to given antigen) | SFC (mean magnitude of response)
Receptor for activated protein kinase C [RACK1] | — | —

Same assay, conditions: non-redundant epitopes; sensitized donors

Substance | Average Magnitude of Response | Response Rate per Subject
HYQFDSIHKFEFASK | 24.4 | 1.4
PLKKETIPYYTKKFD | 14.2 | 5.7
CPTNLGTTVRASVRI | 11.2 | 4.3
DENSKQKKWDPLKKE | 10.3 | 5.7
SVNATVVRLQSWQSE | 4.1 | 2.9
AAIANYHYDADENSK | 26.2 | 11.4
TGILYKARLSLDRNE | 4.3 | 2.9
FLLSYGEKDFEDYRF | 8.5 | 8.6
QKGYMVSSMTDLWEA | 13.9 | 8.6
HHQRLFMVQSLERVV | 3.1 | 2.9
RLFGAEVGWLALHHN | 35.5 | 1.4
IHENLIVTSPFRPWW | 9.3 | 2.9
KALQNAESEVAALNR | 6.0 | 1.4
KAHSMRNSASMDLSS | 16.4 | 4.3
LVYPTSLGFPLKLVL | 4.4 | 2.9
DVLDIGGLKVQKQTF | 3.5 | 2.9
GEPIRFLLSYGEKDF | 3.3 | 2.9
LWEINMIKAIISQLQ | 3.5 | 2.9
KLGDKEMIQHYTLDQ | 5.0 | 1.4
RGNNAIKWLVNFGVG | 15.0 | 5.7
IRFSVRRFHPKLGDK | 5.8 | 2.9
AKGMMHMIKKGANGS | 18.7 | 2.9
SEVTALNRQIGGTPI | 3.9 | 2.9
VNQHKKAIEEDLKHF | 4.0 | 2.9
IRGRTKFEGNKFTID (listed as Blattella germanica) | 75.5 | 5.7

Substance | Average Magnitude of Response | Response Rate per Subject
KIGEYKNMIAEGIID | 6.2 | 1.4
DCGVAGFRVDAAKHM | 3.9 | 2.9
WVCEHRWRQIFNMVG | 33.9 | 4.3
EIDGKQTHQSVAISR | 3.8 | 4.3
KCHLTNIACLLHNKY | 22.6 | 5.7
KELVEKYGKGKAIFI | 3.4 | 2.9
KVIDLLLSLYLDQNE | 3.6 | 7.1
MGVQKFWAFDNTTFS | 7.3 | 7.1
LIPVDQIIAIATDYL | 9.8 | 1.4
CATDTLANEDCFRHE | 3.2 | 2.9
KVFLKNYLVGNAQFK | 6.4 | 1.4
KAIFIKCDVTNIPEF | 9.3 | 7.1
ALREKVLGLPAIKAW (listed as Blattella germanica) | 77.1 | 12.9
FQINLDFKNHNGFIR | 52.0 | 1.4
PNLKPSMPFGKTPVL | 4.2 | 2.9
LVFLRNAKIELKPNQ | 4.0 | 2.9
KQLKVSQIMEAARKL | 4.2 | 4.3
SPYFVTNTEKMITEF | 13.6 | 2.9
LNAIEFINNIHDLLG | 8.8 | 2.9
RCNNVGIRIYVDVVL | 13.0 | 2.9
KFTIDYNDKGKAFSA | 32.0 | 11.4
ATDYENYAIVEGCPA | 32.7 | 1.4
THQFNVAGSVTVDKT | 5.6 | 2.9
KAIEEDLKHFNLKYE | 5.7 | 2.9
VAISRYLGKQFGLSG (listed as Blattella germanica) | 94.9 | 8.6

Substance | Average Magnitude of Response | Response Rate per Subject
IVINNAGILNDEKWE | 10.8 | 4.3
QPNLKALREKVLGLP | 6.5 | 5.7
PAIKAWVAKRPPTDL | 18.7 | 10.0
WVPSKKCHLTNIACL | 8.4 | 5.7
VVFDTGSSNLWVPSK | 4.7 | 4.3
NDIEKRVPFSHDDRL (listed as Blattella germanica) | 72.8 | 15.7
HTKLSSSSSITLTLP | 6.2 | 5.7
EMIQHYTLDQVNQHK | 3.5 | 2.9
ARYFLERLSNDLPDV | 3.5 | 2.9
YFVAILDYLNHMAKE (listed as Blattella germanica) | 137.2 | 15.7
PVDQIIAIATDYLAN | 7.5 | 2.9
DVLQWQTIPYTTIHN | 15.9 | 2.9
PKSMLLNIFTNNLGR (listed as Blattella germanica) | 52.5 | 7.1
AVLALCATDTLANED | 3.0 | 2.9
STSCNVVVASQECVG | 4.2 | 4.3
QTHQSVAISRYLGKQ | 4.3 | 4.3
NVIYSQNSFLPRATT | 3.8 | 1.4
GQEYTFYVIVTPYAK | 3.2 | 2.9
AAVAYLQSDEFETIV | 3.2 | 1.4
FSQMYHAQLAFSTAF | 3.4 | 2.9
TIPYYTKKFDEVVKA (listed as Blattella germanica) | 311.6 | 11.4
STSLVKAHSMRNSAS | 19.9 | 4.3
RILLRLHRCFQVLGR | 13.5 | 1.4
KNMTYVNTSLVLAFS | 8.4 | 2.9
AKRFAKWALPLYNKP | 12.2 | 1.4

Same assay, conditions: sensitized subjects; 2-week extract stimulation

Substance | T cell reactivity (cytokine release) to NBGA, in words
Receptor for activated protein kinase C [RACK1] | Significant reactivity
